Laboratory results from US20210047297A1, “4-(3-AMINO-6-FLUORO-1H-INDAZOL-5-YL)-1,2,6-TRIMETHYL-1,4-DIHYDROPYRIDINE-3,5-DIC ARBONITRILE COMPOUNDS FOR TREATING HYPERPROLIFERATIVE DISORDERS” (Bayer Pharma Aktiengesellschaft, priority 2018, published 2021).

Target: T1, GST-AMPKα2/ß1/γ1 complex (full-length human AMPKα2) (Homo sapiens, UniProt P54619+P54646+Q9Y478)
T1 construct: purchased Carna Biosciences 02-114; host or cells: baculovirus expression system
Test: AMPK high ATP assay (TR-FRET-based AMPK activity inhibition assay)
Format: biochemical
Conditions: ATP concentration of 1 mM; median; read-out: AMPK high ATP assay IC50 [mol/l] (median)
Protocol: AMPK inhibitory activity of compounds of the present invention at an ATP concentration of 1 mM was quantified employing the TR-FRET-based AMPK activity inhibition assay as described in the following paragraphs.
Recombinant fusion protein of N-terminal Glutathion-S-Transferase (GST) and full-length human AMPKα2 [1-552(end) amino acids of accession number NP_006243.2] co-expressed with GST-PRKAB1 [1-270(end) amino acids of accession number NP_006244.2] and PRKAG1 [1-331(end) amino acids of accession number NP_002724.1] using a baculovirus expression system, purified as GST-AMPKα2/ß1/γ1 complex by using glutathione sepharose chromatography, activated with His-tagged CaMKK1 and subsequently purified by using glutathione sepharose chromatography, was purchased from Carna Biosciences (product number 02-114) and used as kinase. As substrate for the kinase reaction biotinylated peptide biotin-Ahx-HMRSAMSFAEPG (C-terminus in amide form) was used which can be purchased e.g. form the company Biosyntan (Berlin-Buch, Germany). For the assay 50 nl of a 100 fold concentrated solution of the test compound in DMSO was pipetted into either a black low volume 384 well microtiter plate or a black 1536 well microtiter plate (both Greiner Bio-One, Frickenhausen, Germany), 2 μl of a solution of GST-AMPKα2/ß1/γ1 in aqueous assay buffer [50 mM Hepes pH 7.5, 10 mM MgCl2, 5 mM β-glycerophosphate, 2.5 mM dithiothreitol (DTT), 0.5 mM EGTA, 0.01% (w/v) bovine γ-globulin (Sigma-Aldrich, #G5009), 0.01% (v/v) Triton X-100 (Sigma-Aldrich, #T9284)] were added and the mixture was incubated for 15 min at 22° C. to allow pre-binding of the test compounds to the enzyme before the start of the kinase reaction. Then the kinase reaction was started by the addition of 3 μl of a solution of adenosine-tri-phosphate (ATP, 1.67 mM=>final conc. in the 5 μl assay volume is 1 mM), adenosine-mono-phosphate (AMP, 3.33 μM=>final conc. in the 5 μl assay volume is 2 μM), and substrate (0.83 μM=>final conc. in the 5 μl assay volume is 0.5 μM) in assay buffer and the resulting mixture was incubated for a reaction time of 30 min at 22° C. The concentration of GST-AMPK α2/ß1/γ1 was adjusted depending of the activity of the enzyme lot and was chosen appropriate to have the assay in the linear range, a typical concentration was 0.08 nM. The reaction was stopped by the addition of 3 μl of a solution of TR-FRET detection reagents (0.2 μM streptavidine-XL665 [Cisbio Bioassays, Codolet, France] and 3.33 nM anti-phosho-Serine antibody [Merck Millipore, “STK antibody”, cat. #35-002] and 3.33 nM anti mouse IgG-Tb cryptate, a Terbium-cryptate labelled anti-mouse IgG antibody [Cisbio Bioassays, Codolet, France] in an aqueous EDTA-solution (166.7 mM EDTA, 0.06 (w/v) bovine serum albumin in 50 mM HEPES pH 7.5).
The resulting mixture was incubated 1 h at 22° C. to allow the formation of complex between the phosphorylated biotinylated peptide and the detection reagents. Subsequently the amount of phosphorylated substrate was evaluated by measurement of the resonance energy transfer from the Tb-cryptate to the streptavidine-XL665. Therefore, the fluorescence emissions at 620 nm and 665 nm after excitation at 350 nm was measured in a TR-FRET reader, e.g. a Pherastar FS (BMG Labtechnologies, Offenburg, Germany) or a Viewlux (Perkin-Elmer). The ratio of the emissions at 665 nm and at […] was taken as the measure for the amount of phosphorylated substrate. The data were normalised (enzyme reaction without inhibitor=0 inhibition, all other assay components but no enzyme=100% inhibition).

T1 sequence (P54646 whole entry): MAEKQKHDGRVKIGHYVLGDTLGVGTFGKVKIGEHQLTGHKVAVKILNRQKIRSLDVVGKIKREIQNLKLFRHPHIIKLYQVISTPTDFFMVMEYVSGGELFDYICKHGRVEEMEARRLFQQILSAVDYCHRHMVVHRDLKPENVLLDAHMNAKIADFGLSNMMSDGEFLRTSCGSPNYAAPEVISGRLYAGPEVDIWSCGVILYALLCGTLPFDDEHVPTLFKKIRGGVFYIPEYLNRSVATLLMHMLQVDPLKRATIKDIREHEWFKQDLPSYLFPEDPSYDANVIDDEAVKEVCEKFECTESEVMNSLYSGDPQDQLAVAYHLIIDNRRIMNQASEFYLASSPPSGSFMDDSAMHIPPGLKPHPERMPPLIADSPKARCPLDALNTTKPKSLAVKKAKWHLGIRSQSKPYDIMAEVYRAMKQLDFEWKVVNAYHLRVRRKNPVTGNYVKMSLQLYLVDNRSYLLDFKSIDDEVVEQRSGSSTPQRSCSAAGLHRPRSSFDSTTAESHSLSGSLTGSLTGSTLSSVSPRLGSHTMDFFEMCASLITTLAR
T1 sequence (Q9Y478 whole entry partner): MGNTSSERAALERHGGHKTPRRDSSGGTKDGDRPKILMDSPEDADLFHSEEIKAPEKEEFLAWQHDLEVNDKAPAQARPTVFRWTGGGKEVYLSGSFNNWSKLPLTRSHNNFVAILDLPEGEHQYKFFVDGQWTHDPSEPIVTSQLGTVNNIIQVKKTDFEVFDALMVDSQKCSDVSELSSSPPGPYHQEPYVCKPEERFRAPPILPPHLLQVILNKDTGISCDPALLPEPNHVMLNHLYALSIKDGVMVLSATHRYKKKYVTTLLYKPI
T1 sequence (P54619 whole entry partner): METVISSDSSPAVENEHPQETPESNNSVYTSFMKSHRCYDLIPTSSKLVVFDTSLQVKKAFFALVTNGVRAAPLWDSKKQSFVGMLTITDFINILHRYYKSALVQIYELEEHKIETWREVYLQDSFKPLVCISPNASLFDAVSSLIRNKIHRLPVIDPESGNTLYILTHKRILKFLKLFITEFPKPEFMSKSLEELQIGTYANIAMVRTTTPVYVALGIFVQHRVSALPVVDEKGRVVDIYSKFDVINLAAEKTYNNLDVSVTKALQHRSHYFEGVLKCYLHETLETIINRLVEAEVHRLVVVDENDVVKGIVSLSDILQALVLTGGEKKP

SMILES	IC50 [nM]
CC1=C(C#N)C(c2cc3c(NC(=O)C(C)c4cccnc4)n[nH]c3c(C)c2F)C(C#N)=C(C)N1C (racemic) [Example 21, (rac)-N-[5-(3,5-dicyano-1,2,6-trimethyl-1,4-dihydropyridin-4-yl)-6-fluoro-7-methyl-1H-indazol-3-yl]-2-(pyridin-3-yl)propanamide]	84
CCn1nc(C)cc1C(=O)Nc1n[nH]c2c(I)c(F)c(C3C(C#N)=C(C)N(C)C(C)=C3C#N)cc12 [Example 1, N-[5-(3,5-dicyano-1,2,6-trimethyl-1,4-dihydropyridin-4-yl)-6-fluoro-7-iodo-1H-indazol-3-yl]-1-ethyl-3-methyl-1H-pyrazole-5-carboxamide]	62.6
CC1=C(C#N)C(c2cc3c(NC(=O)c4ccccc4Cl)n[nH]c3c(I)c2F)C(C#N)=C(C)N1C [Example 2, 2-chloro-N-[5-(3,5-dicyano-1,2,6-trimethyl-1,4-dihydropyridin-4-yl)-6-fluoro-7-iodo-1H-indazol-3-yl]benzamide]	13
CC1=C(C#N)C(c2cc3c(NC(=O)c4cn(C)nc4C(F)(F)F)n[nH]c3c(I)c2F)C(C#N)=C(C)N1C [Example 3, N-[5-(3,5-dicyano-1,2,6-trimethyl-1,4-dihydropyridin-4-yl)-6-fluoro-7-iodo-1H-indazol-3-yl]-1-methyl-3-(trifluoromethyl)-1H-pyrazole-4-carboxamide]	54.3
CC1=C(C#N)C(c2cc3c(NC(=O)c4ccc(OCCN5CCCC5)cc4Cl)n[nH]c3c(I)c2F)C(C#N)=C(C)N1C [Example 4, 2-chloro-N-[5-(3,5-dicyano-1,2,6-trimethyl-1,4-dihydropyridin-4-yl)-6-fluoro-7-iodo-1H-indazol-3-yl]-4-[2-(pyrrolidin-1-yl)ethoxy]benzamide]	2.7
CCn1nc(C)cc1C(=O)Nc1n[nH]c2c(C)c(F)c(C3C(C#N)=C(C)N(C)C(C)=C3C#N)cc12 [Example 5, N-[5-(3,5-dicyano-1,2,6-trimethyl-1,4-dihydropyridin-4-yl)-6-fluoro-7-methyl-1H-indazol-3-yl]-1-ethyl-3-methyl-1H-pyrazole-5-carboxamide]	3.74
CC1=C(C#N)C(c2cc3c(NC(=O)c4ccccc4Cl)n[nH]c3c(C)c2F)C(C#N)=C(C)N1C [Example 6, 2-chloro-N-[5-(3,5-dicyano-1,2,6-trimethyl-1,4-dihydropyridin-4-yl)-6-fluoro-7-methyl-1H-indazol-3-yl]benzamide]	3.65
CC1=C(C#N)C(c2cc3c(NC(=O)c4c(F)cccc4F)n[nH]c3c(C)c2F)C(C#N)=C(C)N1C [Example 7, N-[5-(3,5-dicyano-1,2,6-trimethyl-1,4-dihydropyridin-4-yl)-6-fluoro-7-methyl-1H-indazol-3-yl]-2,6-difluorobenzamide]	19.6
CCc1ccccc1C(=O)Nc1n[nH]c2c(C)c(F)c(C3C(C#N)=C(C)N(C)C(C)=C3C#N)cc12 [Example 8, N-[5-(3,5-dicyano-1,2,6-trimethyl-1,4-dihydropyridin-4-yl)-6-fluoro-7-methyl-1H-indazol-3-yl]-2-ethylbenzamide]	15.1
CC1=C(C#N)C(c2cc3c(NC(=O)c4cn(C)nc4C(F)(F)F)n[nH]c3c(C)c2F)C(C#N)=C(C)N1C [Example 9, N-[5-(3,5-dicyano-1,2,6-trimethyl-1,4-dihydropyridin-4-yl)-6-fluoro-7-methyl-1H-indazol-3-yl]-1-methyl-3-(trifluoromethyl)-1H-pyrazole-4-carboxamide]	12.2
CC1=C(C#N)C(c2cc3c(NC(=O)c4cc(F)ccc4C(F)(F)F)n[nH]c3c(C)c2F)C(C#N)=C(C)N1C [Example 10, N-[5-(3,5-dicyano-1,2,6-trimethyl-1,4-dihydropyridin-4-yl)-6-fluoro-7-methyl-1H-indazol-3-yl]-5-fluoro-2-(trifluoromethyl)benzamide]	26.2
CC1=C(C#N)C(c2cc3c(NC(=O)c4c(F)cccc4Cl)n[nH]c3c(C)c2F)C(C#N)=C(C)N1C [Example 11, 2-chloro-N-[5-(3,5-dicyano-1,2,6-trimethyl-1,4-dihydropyridin-4-yl)-6-fluoro-7-methyl-1H-indazol-3-yl]-6-fluorobenzamide]	8.9
CCn1cc(C(=O)Nc2n[nH]c3c(C)c(F)c(C4C(C#N)=C(C)N(C)C(C)=C4C#N)cc23)c(C)n1 [Example 12, N-[5-(3,5-dicyano-1,2,6-trimethyl-1,4-dihydropyridin-4-yl)-6-fluoro-7-methyl-1H-indazol-3-yl]-1-ethyl-3-methyl-1H-pyrazole-4-carboxamide]	15.7
CC1=C(C#N)C(c2cc3c(NC(=O)c4ccc(OCCN5CCCC5)cc4)n[nH]c3c(C)c2F)C(C#N)=C(C)N1C [Example 13, N-[5-(3,5-dicyano-1,2,6-trimethyl-1,4-dihydropyridin-4-yl)-6-fluoro-7-methyl-1H-indazol-3-yl]-4-[2-(pyrrolidin-1-yl)ethoxy]benzamide]	13.4
CC1=C(C#N)C(c2cc3c(NC(=O)Cc4ccc(C)nc4)n[nH]c3c(C)c2F)C(C#N)=C(C)N1C [Example 14, N-[5-(3,5-dicyano-1,2,6-trimethyl-1,4-dihydropyridin-4-yl)-6-fluoro-7-methyl-1H-indazol-3-yl]-2-(6-methylpyridin-3-yl)acetamide]	21.5
COCCn1cc(C(=O)Nc2n[nH]c3c(C)c(F)c(C4C(C#N)=C(C)N(C)C(C)=C4C#N)cc23)c(C(F)(F)F)n1 [Example 15, N-[5-(3,5-dicyano-1,2,6-trimethyl-1,4-dihydropyridin-4-yl)-6-fluoro-7-methyl-1H-indazol-3-yl]-1-(2-methoxyethyl)-3-(trifluoromethyl)-1H-pyrazole-4-carboxamide]	7.76
CC1=C(C#N)C(c2cc3c(NC(=O)c4cn(CCN5CCCC5)nc4C(F)(F)F)n[nH]c3c(C)c2F)C(C#N)=C(C)N1C [Example 16, N-[5-(3,5-dicyano-1,2,6-trimethyl-1,4-dihydropyridin-4-yl)-6-fluoro-7-methyl-1H-indazol-3-yl]-1-[2-(pyrrolidin-1-yl)ethyl]-3-(trifluoromethyl)-1H-pyrazole-4-carboxamide]	5.71
CC1=C(C#N)C(c2cc3c(NC(=O)c4cn(CC(C)(C)O)nc4C(F)(F)F)n[nH]c3c(C)c2F)C(C#N)=C(C)N1C [Example 17, N-[5-(3,5-dicyano-1,2,6-trimethyl-1,4-dihydropyridin-4-yl)-6-fluoro-7-methyl-1H-indazol-3-yl]-1-(2-hydroxy-2-methylpropyl)-3-(trifluoromethyl)-1H-pyrazole-4-carboxamide]	7.95
CC1=C(C#N)C(c2cc3c(NC(=O)c4cnn(CC(C)(C)O)c4C(F)(F)F)n[nH]c3c(C)c2F)C(C#N)=C(C)N1C [Example 18, N-[5-(3,5-dicyano-1,2,6-trimethyl-1,4-dihydropyridin-4-yl)-6-fluoro-7-methyl-1H-indazol-3-yl]-1-(2-hydroxy-2-methylpropyl)-5-(trifluoromethyl)-1H-pyrazole-4-carboxamide]	45.4
CC1=C(C#N)C(c2cc3c(NC(=O)c4cnn(CCN5CCCC5)c4C(F)(F)F)n[nH]c3c(C)c2F)C(C#N)=C(C)N1C [Example 19, N-[5-(3,5-dicyano-1,2,6-trimethyl-1,4-dihydropyridin-4-yl)-6-fluoro-7-methyl-1H-indazol-3-yl]-1-[2-(pyrrolidin-1-yl)ethyl]-5-(trifluoromethyl)-1H-pyrazole-4-carboxamide]	37.6
